Target: Gamma-aminobutyric acid type B receptor subunit 1/2 (UniProt Q9Z0U4+O88871)
Experiment: Displacement of [3H]baclofen from Gamma-aminobutyric acid type B receptor in rat brain membranes

Chain of Gamma-aminobutyric acid type B receptor subunit 1/2 (Q9Z0U4 whole entry): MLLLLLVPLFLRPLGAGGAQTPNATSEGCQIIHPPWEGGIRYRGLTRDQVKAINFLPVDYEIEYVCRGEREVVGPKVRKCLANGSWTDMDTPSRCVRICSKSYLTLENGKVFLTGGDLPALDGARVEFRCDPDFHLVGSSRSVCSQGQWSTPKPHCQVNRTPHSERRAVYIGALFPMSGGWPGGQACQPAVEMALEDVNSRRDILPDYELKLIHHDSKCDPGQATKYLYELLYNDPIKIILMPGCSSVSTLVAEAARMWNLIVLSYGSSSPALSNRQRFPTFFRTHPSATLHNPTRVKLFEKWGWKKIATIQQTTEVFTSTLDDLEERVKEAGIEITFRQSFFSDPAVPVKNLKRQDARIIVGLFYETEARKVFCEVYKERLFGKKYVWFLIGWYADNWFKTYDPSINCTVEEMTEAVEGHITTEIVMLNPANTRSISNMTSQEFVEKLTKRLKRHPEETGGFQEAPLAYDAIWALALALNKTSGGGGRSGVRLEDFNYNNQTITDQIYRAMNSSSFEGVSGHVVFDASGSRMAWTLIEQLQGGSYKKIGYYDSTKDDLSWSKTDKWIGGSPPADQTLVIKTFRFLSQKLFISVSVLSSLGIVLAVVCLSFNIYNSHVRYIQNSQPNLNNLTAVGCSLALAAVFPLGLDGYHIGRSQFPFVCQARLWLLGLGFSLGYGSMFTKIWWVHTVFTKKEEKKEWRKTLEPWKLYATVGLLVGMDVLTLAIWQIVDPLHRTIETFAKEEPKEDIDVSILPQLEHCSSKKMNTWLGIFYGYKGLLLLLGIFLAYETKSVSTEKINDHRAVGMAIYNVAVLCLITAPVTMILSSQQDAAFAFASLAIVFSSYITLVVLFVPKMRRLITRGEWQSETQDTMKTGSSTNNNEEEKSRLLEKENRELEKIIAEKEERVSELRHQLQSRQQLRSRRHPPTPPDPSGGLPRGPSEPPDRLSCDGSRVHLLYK
Chain of Gamma-aminobutyric acid type B receptor subunit 1/2 (O88871 whole entry): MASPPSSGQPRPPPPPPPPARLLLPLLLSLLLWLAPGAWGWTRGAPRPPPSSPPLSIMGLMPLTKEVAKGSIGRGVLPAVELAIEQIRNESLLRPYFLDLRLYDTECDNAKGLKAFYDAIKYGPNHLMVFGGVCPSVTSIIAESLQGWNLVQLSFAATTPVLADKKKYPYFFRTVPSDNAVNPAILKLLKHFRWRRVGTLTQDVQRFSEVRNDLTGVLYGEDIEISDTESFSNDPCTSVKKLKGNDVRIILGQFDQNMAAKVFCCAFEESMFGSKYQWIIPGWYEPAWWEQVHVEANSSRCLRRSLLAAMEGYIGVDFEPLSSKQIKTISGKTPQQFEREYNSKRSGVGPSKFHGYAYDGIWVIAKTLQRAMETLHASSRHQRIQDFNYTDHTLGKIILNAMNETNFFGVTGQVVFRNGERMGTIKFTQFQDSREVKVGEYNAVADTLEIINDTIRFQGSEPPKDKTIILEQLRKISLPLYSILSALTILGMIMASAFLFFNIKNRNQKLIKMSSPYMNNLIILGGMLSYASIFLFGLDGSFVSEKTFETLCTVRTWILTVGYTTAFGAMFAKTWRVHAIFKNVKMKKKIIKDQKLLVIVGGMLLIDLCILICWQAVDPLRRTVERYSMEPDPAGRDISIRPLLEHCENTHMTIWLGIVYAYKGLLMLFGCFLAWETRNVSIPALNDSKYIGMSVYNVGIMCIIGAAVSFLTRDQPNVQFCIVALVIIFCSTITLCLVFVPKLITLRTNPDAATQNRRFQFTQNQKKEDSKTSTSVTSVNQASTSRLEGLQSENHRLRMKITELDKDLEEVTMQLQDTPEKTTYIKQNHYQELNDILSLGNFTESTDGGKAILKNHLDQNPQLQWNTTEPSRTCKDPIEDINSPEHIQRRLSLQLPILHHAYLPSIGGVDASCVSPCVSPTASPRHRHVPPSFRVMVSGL

For `NCC1CC(=O)CC(=O)C1`, the IC50 was > 100 µM.
